A word on the IC50: it is the concentration that inhibits the measured activity by half. A word on the inhibition: it is the change of the read-out against control, counted positive when it falls. As usually defined, the Ki is a measure of affinity in units of concentration, obtained from inhibition or displacement.

Data set [1] concerns the target T1, Amine oxidase [flavin-containing] A (Homo sapiens, UniProt P21397).
T1 sequence (P21397 whole entry): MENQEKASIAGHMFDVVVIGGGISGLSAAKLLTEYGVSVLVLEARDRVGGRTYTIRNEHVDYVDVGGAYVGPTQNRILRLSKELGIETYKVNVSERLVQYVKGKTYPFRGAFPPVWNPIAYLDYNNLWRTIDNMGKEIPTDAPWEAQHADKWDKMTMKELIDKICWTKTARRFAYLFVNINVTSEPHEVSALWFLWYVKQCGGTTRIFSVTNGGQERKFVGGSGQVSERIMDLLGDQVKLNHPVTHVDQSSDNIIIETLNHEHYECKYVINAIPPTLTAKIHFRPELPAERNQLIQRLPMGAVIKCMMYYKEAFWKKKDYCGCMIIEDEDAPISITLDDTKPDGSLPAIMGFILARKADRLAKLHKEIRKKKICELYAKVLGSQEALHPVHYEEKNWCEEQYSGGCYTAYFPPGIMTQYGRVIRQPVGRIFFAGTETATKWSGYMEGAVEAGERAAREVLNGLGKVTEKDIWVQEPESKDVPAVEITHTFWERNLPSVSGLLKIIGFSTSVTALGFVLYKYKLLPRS
In words: Inhibition of recombinant human MAO-A using kynuramine as substrate incubated for 10 mins.

Data set [2] has as its target T2, Amine oxidase [flavin-containing] B (Homo sapiens, UniProt P27338).
T2 sequence (P27338 whole entry): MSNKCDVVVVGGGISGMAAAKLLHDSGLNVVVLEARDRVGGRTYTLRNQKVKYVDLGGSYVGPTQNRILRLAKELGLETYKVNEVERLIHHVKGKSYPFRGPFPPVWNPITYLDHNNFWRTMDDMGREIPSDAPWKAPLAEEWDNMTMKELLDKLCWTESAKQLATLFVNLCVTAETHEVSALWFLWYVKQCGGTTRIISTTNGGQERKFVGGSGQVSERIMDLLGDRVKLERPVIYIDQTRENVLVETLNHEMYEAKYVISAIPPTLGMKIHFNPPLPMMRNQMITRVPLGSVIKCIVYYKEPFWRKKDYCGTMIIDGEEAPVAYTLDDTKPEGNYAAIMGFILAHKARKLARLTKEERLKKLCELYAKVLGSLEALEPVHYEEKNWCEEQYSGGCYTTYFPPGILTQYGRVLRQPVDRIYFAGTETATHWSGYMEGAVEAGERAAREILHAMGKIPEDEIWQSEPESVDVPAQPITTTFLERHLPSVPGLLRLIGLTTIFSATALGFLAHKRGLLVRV
Briefly: Inhibition of recombinant human MAO-B using benzylamine as substrate preincubated for 15 mins.

Data set [3] addresses T2, Amine oxidase [flavin-containing] B. In words: Inhibition of recombinant human MAO-B using benzylamine as substrate at 40 uM after 15 mins relative to control. The settings on record: 0.25 h.
The target in data set [4] is T1, Amine oxidase [flavin-containing] A. In words: Time-dependent inhibition of recombinant human MAO-A preincubated up to 30 mins followed by addition of 0.2 mM of kynuramine as substrate.
Data set [5] shares this target. Briefly: Inhibition of recombinant human MAO-A assessed as residual activity at 5 uM using 0.2 mM kynuramine as substrate incubated for 10 mins. The settings on record: read-out: Activity.
Data set [6] shares this target. Briefly: Reversible inhibition of recombinant human MAO-A assessed as residual activity at 5 uM preincubated for 10 mins in presence of kynuramine substrate followed by re-addition of 0.2 mM of substrate measured after 10 mins. The settings on record: read-out: Activity.
Data set [7] has the same target. Briefly: Inhibition of recombinant human MAO-A assessed as residual activity at 5 uM using 0.4 mM of kynuramine as substrate after 10 mins. The settings on record: read-out: Activity.
The target is the same in data set [8]. Briefly: Reversible inhibition of recombinant human MAO-A using kynuramine as substrate assessed as residual activity at 100 times IC50 preincubated for 10 mins followed by 100 times compound dilution.
Data set [9] shares this target. Briefly: Competitive inhibition of recombinant human MAO-A using 0.01 to 0.5 mM kynuramine substrate by Lineweaver-Burk plot analysis.
For data set [10] the target is unchanged. In words: Inhibition of recombinant human liver MAO-A expressed in yeast using kynuramine as substrate preincubated for 3 mins followed by substrate addition by double reciprocal plot analysis.
Data set [11] has the same target. In words: Competitive inhibition of recombinant human MAO-A using varying levels of kynuramine substrate after 5 mins by Lineweaver-Burk plot analysis.
Data set [12] shares this target. In words: Irreversible inhibition of recombinant human MAO-A using kynuramine as substrate assessed as residual activity at 100 times IC50 preincubated for 10 mins followed by 100 times compound dilution.

For the compound `O=C1c2ccccc2C(=O)c2c(O)c(O)cc(O)c21` [PURPURIN], the IC50 in [1] is 2500 nM; in data set [2], more than 40000 nM. Moreover, the inhibition at 40 µM in [3] was 23.3%. The TDI entry in [4] was “Active”. For the same compound, the activity at 5 µM was determined as 36.6% in [5], 55.2% in data set [6] and 54.4% in data set [7]. Further, the Activity in [8] is 63.9 to 67.2%. The Ki in [9] came to 422 nM.
As for `O=C1c2ccccc2C(=O)c2c1ccc(O)c2O` [ATHRAQUINONES A], the IC50 was 30100 nM in data set [1] and more than 60000 nM in data set [2].
On to `Cn1ccc2c3ccccc3nc-2c1`, for which the Ki in data set [10] amounted to 1430 nM.
Turning to `CNc1ccccc1-c1nc(C(=O)OC)cs1`, the Ki in data set [11] is 1840 nM.
On to `C#CCN(C)CCCOc1ccc(Cl)cc1Cl` [CLORGILINE], for which, in data set [12], the Activity was 24.9 to 47.9%.
